B1: NGF: mouse nerve growth factor applied acutely to cultures (protein, UniProt P01139 122-241, looked up)
Beta-nerve growth factor: SSTHPVFHMGEFSVCDSVSVWVGDKTTATDIKGKEVTVLAEVNINNSVFRQYFFETKCRASNPVESGCRGIDSKHWNSYCTTTHTFVKALTTDEKQAAWRFIRIDTACVCVLSRKATRRG
modifications: Beta-nerve growth factor
notes: mouse nerve growth factor applied acutely to cultures

Tests used:
Type in all cases: cell-based, murine
hippocampal cultures [1] = assay: Chronic treatment of hippocampal cultures on MEA neurochips, spontaneous network activity; details: chronic treatment 4-28 days in vitro; 30 μg/ml Cistanche, 300 nM Donepezil
Excerpt: Microelectrode array (MEA) neurochips were utilized to analyze various examples. Specifically, use of MEA neurochips enabled stimulation and recording of bioelectricity with high spatial and temporal resolution, to glean neuroactivity of the Cistanche and Ginkgo extracts, alone and in combination, and with neuronal growth factors.
MEA neurochips are available from NeuroProof GmbH of Rostock, Germany. The electrophysiological properties of compounds can be evaluated using their ability for induction of activity changes in neuronal networks grown on MEA neurochips. Routine monitoring of internal dynamics of mammalian neuronal networks is possible. […]
FIG. 8 illustrates examples of the study to assess chronic effects of Cistanche tubulosa extract on maturation of a neuronal network. […] At 28 days after repeated dose chronic treatment, spontaneous activity was measured, followed by recording of activity to acute NGF concentration-response curve. […]
Multichannel recording delivered single neuron spike data and spike identification and separation were accomplished with a template-matching algorithm in real time, to allow the extracellular recording of action potentials from 256 neurons simultaneously. The action potentials or “spikes” were recorded in spike trains and clustered in bursts, which can be quantitatively described via direct spike train analysis. […]

[2] = tested on: hippocampal network morphology; assay: Immuno-histochemical analysis of recorded cultures, semi-automatic quantitative image analysis; details: chronic 4-28 days in vitro; 30 μg/ml Cistanche, 300 nM Donepezil
Excerpt: FIG. 5A is an example image associated with semi-automatic quantification of neurons/image, neurites/image, synapses/image, and synapse/neurite ratio. The image depicts color-merge of synapse (green), neurites (red), nuclei (blue), bar=50 μm.
FIG. 5B is an example image corresponding to synapse channel: color-inverted and analyzed for synapse particles (red labeled after automatic threshold, particle separation and size filter).
FIG. 9 illustrates examples of the study directed at immuno-histochemical analysis. Recorded cultures are further analyzed by immunocytochemistry, fluorescence microscopy and semi-automatic quantitative image analysis. Images are quantified per image for: cell number, neuronal number, neurite number, synapse number, % neurons, neurites per neuron, and synapses per neuron. […]
Recorded cultures were further analyzed by immunocytochemistry, fluorescent microscopy and quantitative image analysis for morphological findings. Semi-automatic quantification (mean±SEM, student's t-test: *p≦0.05; n=3 with 10-20 images each.)
FIG. 21 are images associated with semi-automatic quantification of total cells/field, percentage of neurons, neuritic density, and synaptic number/field. […] The rightmost images correspond to synapse channel: color inverted and analyzed for synapse particles.

hippocampal cultures [3] = assay: Acute NGF concentration-response on chronically treated hippocampal cultures, MEA neurochips; details: acute mNGF 3 ng/ml to 1 μg/ml
Protocol: FIG. 8 illustrates examples of the study to assess chronic effects of Cistanche tubulosa extract on maturation of a neuronal network. Hippocampal cultures on MEA neurochips were treated with 30 μg/ml Cistanche, 300 nM Donepezil, or a dimethyl sulfoxide (“DMSO”) vehicle control. At 28 days after repeated dose chronic treatment, spontaneous activity was measured, followed by recording of activity to acute NGF concentration-response curve.
FIG. 19A is a first portion of a heat map and FIG. 19B is a second portion of the heat map. The heat map illustrates concentration dependent effects of acute mouse nerve growth factor (“mNGF”) on network activity of chronically treated hippocampal cultures with the mixtures or components described above for FIG. 18.
The heat map illustrates significant changes on the 60 most representative parameters for each mNGF concentration, from 3 ng/ml to 1 μg/ml. The color code changes in activity parameters according to the percent changes (100:no change), with yellow/red=an increase and green/blue=a decrease.

| Molecule | spontaneous network activity (hippocampal cultures [1]) | global synapse number [2] | effect of chronic treatment on the acute NGF response (hippocampal cultures [3]; chronic 4-28 days in vitro, 30 μg/ml Cistanche, 300 nM Donepezil, mixture at 10 and 30 μg/ml) | effect of acute NGF alone on general activity (hippocampal cultures [3]; vehicle-treated cultures) |
| --- | --- | --- | --- | --- |
| COc1cc2c(cc1OC)C(=O)C(CC1CCN(Cc3ccccc3)CC1)C2 (stereo not shown) [Donepezil] | enhanced the spontaneous network activity | increase | compensated the inhibitory acute NGF response |  |
| B1 |  |  |  | inhibition of general activity |
